Bounds are passed on as bounds.

Usually inhibition stands for how much of the control response was suppressed.

In the assay the target is T1, human PDE10A enzyme (Homo sapiens, UniProt Q9Y233).
T1 construct: Human PDE10A full-length gene was transfected into Sf9 or COS-7 cells; His-tag; made in house; host or cells: Sf9 or COS-7 cells
T1 sequence (Q9Y233 267-1055): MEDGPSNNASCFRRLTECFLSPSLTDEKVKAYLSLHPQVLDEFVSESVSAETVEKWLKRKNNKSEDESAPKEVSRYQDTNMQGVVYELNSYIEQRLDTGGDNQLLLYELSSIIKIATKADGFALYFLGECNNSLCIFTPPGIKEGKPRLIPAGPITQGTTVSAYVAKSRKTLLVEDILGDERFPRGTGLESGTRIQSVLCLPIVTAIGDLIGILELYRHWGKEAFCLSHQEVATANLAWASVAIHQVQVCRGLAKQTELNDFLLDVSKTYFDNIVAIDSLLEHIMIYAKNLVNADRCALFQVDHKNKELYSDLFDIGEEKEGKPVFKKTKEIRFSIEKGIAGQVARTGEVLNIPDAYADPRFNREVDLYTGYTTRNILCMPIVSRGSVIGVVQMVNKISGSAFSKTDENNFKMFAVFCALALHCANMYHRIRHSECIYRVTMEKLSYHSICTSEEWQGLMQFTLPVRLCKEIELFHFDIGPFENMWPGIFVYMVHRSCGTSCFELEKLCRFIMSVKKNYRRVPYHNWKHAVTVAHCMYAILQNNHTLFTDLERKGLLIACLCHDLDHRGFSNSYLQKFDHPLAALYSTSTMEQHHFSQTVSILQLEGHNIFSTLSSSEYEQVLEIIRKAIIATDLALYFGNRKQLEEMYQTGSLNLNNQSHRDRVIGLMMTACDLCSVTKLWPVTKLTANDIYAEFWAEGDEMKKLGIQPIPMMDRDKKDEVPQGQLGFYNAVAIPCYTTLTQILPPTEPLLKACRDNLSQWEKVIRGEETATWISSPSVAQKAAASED
As to the kind of experiment: PDE10A Enzyme Activity Inhibition Test (SPA, [3H]cGMP substrate). Particulars: at 100 nM compound; read-out: PDE10A enzyme activity inhibition rate. It counts as biochemical. Here is the method: PDE10A Enzyme Activity Inhibition Test
Human PDE10A full-length gene was transfected into Sf9 or COS-7 cells, the cells were disrupted and centrifuged, and human PDE10A enzyme was obtained from the residue. The enzyme extracted from Sf9 cells was partially purified using His-tag affinity column. The enzyme was stored at −70° C. until use. The PDE activity was measured using an SPA (Scintillation Proximity Assay) (GE Healthcare). To measure the inhibitory activity of the compound, 10 μL of serially diluted compound was reacted with 20 μL of PDE enzyme in an assay buffer (50 mM HEPES-NaOH, 8.3 mM MgCl2, 1.7 mM EGTA, 0.1% BSA (pH 7.4)) for 30 min at room temperature. The final concentration of DMSO in the reaction mixture was 1 percent. The compounds were evaluated in duplicate in 96-well half-area plates (Corning). To start the reaction, 10 μL of substrate [^3H] cGMP (25 and 50 nM; GE Healthcare and PerkinElmer, respectively) was added to 40 μL. After 60 min of reaction at room temperature, yttrium SPA beads containing zinc sulphate were added (6 mg/mL, 20 μL) to terminate the PDE reaction. After standing still for 1 hr, the measurement was performed using a scintillation counter (PerkinElmer) and the PDE10A enzyme activity inhibition rate was calculated. The inhibition rate was calculated based on the control containing enzyme and DMSO as 0% and the control without enzyme as 100%.
As for `O=c1c(-c2ccnn2-c2ccccc2)nn(-c2cccc(C(F)(F)F)c2)c2ccoc12` [Example 1, 3-(1-phenyl-1H-pyrazol-5-yl)-1-[3-(trifluoromethyl)phenyl]furo[3,2-c]pyridazin-4(1H)-one], the inhibition at 0.1 µM is not below 50%.

For `O=c1c(-c2ccnn2-c2ccccc2)nn(-c2cccc(C(F)(F)F)c2)c2c1OCC2` [Example 2, 3-(1-phenyl-1H-pyrazol-5-yl)-1-[3-(trifluoromethyl)phenyl]-6,7-dihydrofuro[3,2-c]pyridazin-4(1H)-one], the inhibition at 0.1 µM was not below 50%.

For `O=c1cc2n(nc1-c1ccnn1-c1ccccc1)-c1ccccc1OC2` [Example 11, 2-(1-phenyl-1H-pyrazol-5-yl)pyridazino[6,1-c][1,4]benzoxazin-3(5H)-one], the inhibition at 0.1 µM was not below 50%.

Consider `COc1c(-c2ccnn2-c2ccccc2)oc(-c2ccccc2)cc1=O` [Example 12, 3-methoxy-6-phenyl-2-(1-phenyl-1H-pyrazol-5-yl)-4H-pyran-4-one], for which the inhibition at 0.1 µM is less than 50%.

As for `O=c1[nH]cc(-c2ccccc2)nc1-c1ccnn1-c1ccccc1` [Example 13, 5-phenyl-3-(1-phenyl-1H-pyrazol-5-yl)pyrazin-2(1H)-one], the inhibition at 0.1 µM was less than 50%.

In the case of `O=c1cc(-c2ccccc2)oc(-c2ccnn2-c2ccccc2)c1O` [Example 14, 3-hydroxy-6-phenyl-2-(1-phenyl-1H-pyrazol-5-yl)-4H-pyran-4-one], the inhibition at 0.1 µM is less than 50%.

Take `O=c1[nH]nc(-c2ccccc2)cc1-c1ccnn1-c1ccccc1` [Example 15, 6-phenyl-4-(1-phenyl-1H-pyrazol-5-yl)pyridazin-3(2H)-one]: the inhibition at 0.1 µM was less than 50%.

Turning to `O=c1[nH]cc(-c2ccccc2)cc1-c1ccnn1-c1ccccc1` [Example 16, 5-phenyl-3-(1-phenyl-1H-pyrazol-5-yl)pyridin-2(1H)-one], the inhibition at 0.1 µM was not below 50%.

With `O=c1cc(-c2ccnn2-c2ccccc2)nc(-c2ccccc2)[nH]1` [Example 17, 2-phenyl-6-(1-phenyl-1H-pyrazol-5-yl)pyrimidin-4(3H)-one], the inhibition at 0.1 µM is less than 50%.

Turning to `O=c1ccn(-c2cccc(C(F)(F)F)c2)cc1-c1ccnn1-c1ccccc1` [Example 18, 3-(1-phenyl-1H-pyrazol-5-yl)-1-[3-(trifluoromethyl)phenyl]pyridin-4(1H)-one], the inhibition at 0.1 µM was less than 50%.

For the compound `O=c1cnn(-c2cccc(C(F)(F)F)c2)cc1-c1ccnn1-c1ccccc1` [Example 19, 5-(1-phenyl-1H-pyrazol-5-yl)-1-[3-(trifluoromethyl)phenyl]pyridazin-4(1H)-one], the inhibition at 0.1 µM was less than 50%.

With `O=c1ccc(-c2ccccc2F)cn1-c1ccnn1-c1ccccc1` [Example 20, 5-(2-fluorophenyl)-1-(1-phenyl-1H-pyrazol-5-yl)pyridin-2(1H)-one], the inhibition at 0.1 µM was less than 50%.

Consider `O=c1ccc(-c2cccc(C(F)(F)F)c2)nn1-c1ccnn1-c1ccccc1` [Example 21, 2-(1-phenyl-1H-pyrazol-5-yl)-6-[3-(trifluoromethyl)phenyl]pyridazin-3(2H)-one], for which the inhibition at 0.1 µM is less than 50%.

Consider `COc1cn(Cc2ccccc2)nc(-c2ccnn2-c2ccccc2)c1=O` [Example 23, 1-benzyl-5-methoxy-3-(1-phenyl-1H-pyrazol-5-yl)pyridazin-4(1H)-one], for which the inhibition at 0.1 µM was not below 50%.

As for `COc1cn(C2=CCN(Cc3ccccc3)CC2)nc(-c2ccnn2-c2ccccc2)c1=O` [Example 25, 1-(1-benzyl-1,2,3,6-tetrahydropyridin-4-yl)-5-methoxy-3-(1-phenyl-1H-pyrazol-5-yl)pyridazin-4(1H)-one], the inhibition at 0.1 µM is not below 50%.

In the case of `O=c1ccn(C2CCN(Cc3ccccc3)CC2)nc1-c1ccnn1-c1ccccc1` [Example 28, 1-(1-benzylpiperidin-4-yl)-3-(1-phenyl-1H-pyrazol-5-yl)pyridazin-4(1H)-one], the inhibition at 0.1 µM was less than 50%.

For `O=c1ccn(C2CCN(c3ccccc3)CC2)nc1-c1ccnn1-c1ccccc1` [Example 31, 1-(1-phenylpiperidin-4-yl)-3-(1-phenyl-1H-pyrazol-5-yl)pyridazin-4(1H)-one], the inhibition at 0.1 µM was not below 50%.

As to `O=c1ccn(C2CCCN(c3ccccc3)C2)nc1-c1ccnn1-c1ccccc1` (centres unmarked) [Example 46, 1-(1-phenylpiperidin-3-yl)-3-(1-phenyl-1H-pyrazol-5-yl)pyridazin-4(1H)-one], the inhibition at 0.1 µM is less than 50%.

`O=C(c1ccccc1)N1CCC(n2ccc(=O)c(-c3ccnn3-c3ccccc3)n2)CC1` [Example 49, 1-[1-(phenylcarbonyl)piperidin-4-yl]-3-(1-phenyl-1H-pyrazol-5-yl)pyridazin-4(1H)-one]: the inhibition at 0.1 µM was less than 50%.

Regarding `COc1cn(C2CCN(c3nccs3)CC2)nc(-c2ccnn2-c2ccccc2)c1=O` [Example 53, 5-methoxy-3-(1-phenyl-1H-pyrazol-5-yl)-1-[1-(1,3-thiazol-2-yl)piperidin-4-yl]pyridazin-4(1H)-one], the inhibition at 0.1 µM is not below 50%.

As for `COc1cn(C2CCN(c3ncccc3C#N)CC2)nc(-c2ccnn2-c2ccccc2)c1=O` [Example 56, 2-{4-[5-methoxy-4-oxo-3-(1-phenyl-1H-pyrazol-5-yl)pyridazin-1(4H)-yl]piperidin-1-yl}pyridine-3-carbonitrile], the inhibition at 0.1 µM was not below 50%.

With `COc1cn(C2CCc3ccccc3C2)nc(-c2ccnn2-c2ccccc2)c1=O` (centres unmarked) [Example 58, 5-methoxy-3-(1-phenyl-1H-pyrazol-5-yl)-1-(1,2,3,4-tetrahydronaphthalen-2-yl)pyridazin-4(1H)-one], the inhibition at 0.1 µM is not below 50%.

`COc1cn(CC2CC2)nc(-c2ccnn2-c2ccccc2)c1=O` [Example 59, 1-(cyclopropylmethyl)-5-methoxy-3-(1-phenyl-1H-pyrazol-5-yl)pyridazin-4(1H)-one]: the inhibition at 0.1 µM was less than 50%.

As for `COc1cn(S(=O)(=O)c2ccccc2)nc(-c2ccnn2-c2ccccc2)c1=O` [Example 60, 5-methoxy-3-(1-phenyl-1H-pyrazol-5-yl)-1-(phenylsulfonyl)pyridazin-4(1H)-one], the inhibition at 0.1 µM is less than 50%.

For `COc1cn(Cc2cccc(-c3ccccc3)c2)nc(-c2ccnn2-c2ccccc2)c1=O` [Example 61, 1-(biphenyl-3-ylmethyl)-5-methoxy-3-(1-phenyl-1H-pyrazol-5-yl)pyridazin-4(1H)-one], the inhibition at 0.1 µM was not below 50%.

For the compound `O=c1ccn(C2CCN(c3ccccc3C(F)(F)F)CC2)nc1-c1ccnn1-c1ccccc1` [Example 64, 3-(1-phenyl-1H-pyrazol-5-yl)-1-{1-[2-(trifluoromethyl)phenyl]piperidin-4-yl}pyridazin-4(1H)-one], the inhibition at 0.1 µM was less than 50%.

As for `COc1cn(C2CCCc3ccccc32)nc(-c2ccnn2-c2ccccc2)c1=O` (centres unmarked) [Example 97, 5-methoxy-3-(1-phenyl-1H-pyrazol-5-yl)-1-(1,2,3,4-tetrahydronaphthalen-1-yl)pyridazin-4(1H)-one], the inhibition at 0.1 µM is less than 50%.

Regarding `COc1cn(C2CN(c3ncccc3C(F)(F)F)C2)nc(-c2ccnn2-c2ccccc2)c1=O` [Example 98, 5-methoxy-3-(1-phenyl-1H-pyrazol-5-yl)-1-{1-[3-(trifluoromethyl)pyridin-2-yl]azetidin-3-yl}pyridazin-4(1H)-one], the inhibition at 0.1 µM was not below 50%.

With `COc1cn(Cc2ccccc2C(F)(F)F)nc(-c2ccnn2-c2ccccc2)c1=O` [Example 102, 5-methoxy-3-(1-phenyl-1H-pyrazol-5-yl)-1-[2-(trifluoromethyl)benzyl]pyridazin-4(1H)-one], the inhibition at 0.1 µM is less than 50%.

Regarding `O=c1cc(-c2ccccc2)sc(-c2ccnn2-c2ccccc2)c1` [Example 140, 2-phenyl-6-(1-phenyl-1H-pyrazol-5-yl)-4H-thiopyran-4-one], the inhibition at 0.1 µM was less than 50%.

Turning to `COc1nc(-c2ccccc2)cn(-c2ccnn2-c2ccccc2)c1=O` [Example 141, 3-methoxy-5-phenyl-1-(1-phenyl-1H-pyrazol-5-yl)pyrazin-2(1H)-one], the inhibition at 0.1 µM is less than 50%.

Regarding `COc1cn(-c2cccc(C(F)(F)F)c2)nc(C2=NC(C)(C)C(=O)N2c2ccccc2)c1=O` [Example 142, 3-(4,4-dimethyl-5-oxo-1-phenyl-4,5-dihydro-1H-imidazol-2-yl)-5-methoxy-1-[3-(trifluoromethyl)phenyl]pyridazin-4(1H)-one], the inhibition at 0.1 µM is less than 50%.
